Experimental data reported in patent US8367328B2, “Method for synthesizing DNA” (Takara Bio Inc., priority 1998, dated 2013).

Key:
[1] = molecular target: T1, Taq DNA Polymerase (Thermus aquaticus, UniProt P19821); assay: PCR with Taq DNA Polymerase in the presence of cationic complexes; type: biochemical; settings: for Amount of amplified DNA relative to No Addition (=1), Taq: 100 pg E. coli JM109 genomic DNA, primers Eco1/Eco2, 30 cycles 98°C 5 s–68°C 2 min, FM-BIO 100
T1 construct: purchased Takara Shuzo Co., Ltd
Text: Using hexaamminecobalt (III) chloride ([Co(NH3)6]Cl3) (manufactured by Sigma), tris(ethylenediamine)cobalt (III) chloride ([Co(C2H8N2)3]Cl3) (manufactured by Aldrich), or tris(ethylenediamine)rhodium (III) trichloride•trihydrate ([Rh(C2H8N2)3]Cl3.3H2O) (manufactured by Aldrich), the effects on the amplification reaction by various kinds of DNA polymerases were examined. As the DNA polymerases, TaKaRa Taq DNA Polymerase (hereinafter referred to as “Taq DNA Polymerase” manufactured by Takara Shuzo Co., Ltd.), Pyrobest DNA Polymerase (manufactured by Takara Shuzo Co., Ltd.) and Ex Taq DNA Polymerase (manufactured by Takara Shuzo Co., Ltd.) were used.
A reaction mixture comprising Escherichia coli JM109 genomic DNA as a template, primers Eco1 and Eco2 as a primer pair, and DNA polymerase was prepared, and PCR was carried out. The compositions of the reaction mixture for each enzyme are as follows.
5 μl of buffer for 10×Taq PCR buffer (manufactured by Takara Shuzo Co., Ltd.), 0.2 mM each of dATP, dCTP, dGTP and dTTP, 1.25 U of Taq DNA Polymerase, 100 pg of Escherichia coli JM109 genomic DNA, and 10 pmol each of primers Eco1 and Eco2 (a final volume being 50 μl).
Further, an aqueous solution of the above-mentioned complexes each so as to have a final concentration of 50 μM, 100 μM, or 200 μM was added to the above reaction mixture.
The reaction was carried out in Fast mode by using TaKaRa PCR Thermal Cycler Personal (manufactured by Takara Shuzo Co., Ltd.). The reaction conditions are as follows. When using Taq DNA Polymerase and Pyrobest DNA Polymerase, the reaction in 30 cycles was carried out for each of these reaction mixtures, wherein one cycle of reaction comprises a process consisting of 98° C., 5 seconds—68° C., 2 minutes, and when using ExTaq DNA Polymerase, the reaction in 30 cycles was carried out for each of these reaction mixtures, wherein one cycle of reaction comprises a process consisting of 98° C., 5 seconds—68° C., 1 minute. After the termination of the reaction, 5 μl of the resulting reaction mixture was subjected to electrophoresis on 2% agarose gel containing ethidium bromide in an amount of 0.00005%. The gel after the electrophoresis was subjected to ultraviolet irradiation to visualize the band ascribed to the amplified product, whereby an amplified fragment was confirmed. The amount of amplified DNA was numerically explained by using a fluorescent image analyzer FM-BIO 100 (manufactured by Takara Shuzo Co., Ltd.).
The DNA polymerases used and the composition for the reaction mixture were similar to those in Example 17, except for the cationic complex, where in cases of using Taq DNA Polymerase and Pyrobest DNA Polymerase, hexaamminecobalt (III) chloride was added so as to have a final concentration of 100 μM, and in a case of using ExTaq DNA Polymerase, hexaamminecobalt (III) chloride was added so as to have a final concentration of 50 μM, respectively.
The reaction was carried out in Fast mode by using TaKaRa PCR Thermal Cycler Personal. The reaction conditions are as follows. When using Taq DNA Polymerase and Pyrobest DNA Polymerase, the reaction in 30 cycles was carried out, wherein one cycle of reaction comprises a process consisting of 98° C., […], 60 seconds or 80 seconds or 100 seconds or 120 seconds. When using ExTaq DNA Polymerase, the reaction in 30 cycles was carried out, wherein one cycle of reaction comprises a process consisting of 98° C., 5 seconds—68° C., 30 seconds or 40 seconds or 50 seconds or 60 seconds.
On the other hand, as a control, the time period or number of cycles for annealing and extension reaction were determined so as to obtain the same amount of the amount of amplified product for one without addition of the cationic complex mentioned above.
After the termination of the reaction, 5 μL of the resulting reaction mixture was subjected to electrophoresis on 2% agarose gel containing ethidium bromide in an amount of 0.00005%. […]

[2] = system: Pyrobest DNA Polymerase; assay: PCR with Pyrobest DNA Polymerase in the presence of cationic complexes; type: biochemical, Pyrococcus sp.; settings: for Amount of amplified DNA relative to No Addition (=1), Pyrobest: 100 pg E. coli JM109 genomic DNA, primers Eco1/Eco2, 30 cycles 98°C 5 s–68°C 2 min, FM-BIO 100

T1 sequence (P19821 whole entry): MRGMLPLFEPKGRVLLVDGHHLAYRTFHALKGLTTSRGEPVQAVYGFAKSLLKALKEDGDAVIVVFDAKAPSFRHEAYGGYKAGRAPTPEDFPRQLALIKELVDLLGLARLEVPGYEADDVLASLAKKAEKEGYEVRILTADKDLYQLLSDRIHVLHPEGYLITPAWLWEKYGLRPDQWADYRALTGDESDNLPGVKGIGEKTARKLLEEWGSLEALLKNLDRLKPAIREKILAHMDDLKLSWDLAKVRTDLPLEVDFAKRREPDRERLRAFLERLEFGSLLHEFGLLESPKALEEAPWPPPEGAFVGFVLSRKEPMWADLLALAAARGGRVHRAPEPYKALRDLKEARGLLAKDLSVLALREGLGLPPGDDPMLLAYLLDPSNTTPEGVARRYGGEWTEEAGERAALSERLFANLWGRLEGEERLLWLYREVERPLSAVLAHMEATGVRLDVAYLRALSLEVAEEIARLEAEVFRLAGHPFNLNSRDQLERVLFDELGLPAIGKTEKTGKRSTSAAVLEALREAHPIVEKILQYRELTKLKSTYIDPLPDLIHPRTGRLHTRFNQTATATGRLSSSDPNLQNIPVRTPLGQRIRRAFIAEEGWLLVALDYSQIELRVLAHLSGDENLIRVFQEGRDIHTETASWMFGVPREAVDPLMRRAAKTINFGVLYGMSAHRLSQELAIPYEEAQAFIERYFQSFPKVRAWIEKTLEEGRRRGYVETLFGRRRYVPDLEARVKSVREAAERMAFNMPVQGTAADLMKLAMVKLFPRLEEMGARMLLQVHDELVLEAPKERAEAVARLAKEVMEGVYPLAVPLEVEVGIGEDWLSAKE

Row | Structure (SMILES) | Amount of amplified DNA relative to No Addition (=1), Taq ([1]; complex 50 μM) | Amount of amplified DNA relative to No Addition (=1), Taq ([1]; complex 100 μM) | Amount of amplified DNA relative to No Addition (=1), Pyrobest ([2]; complex 50 μM) | Amount of amplified DNA relative to No Addition (=1), Pyrobest ([2]; complex 100 μM) | Amplification with one-half the usual enzyme amount versus usual amount without addition ([1]; Taq 0.625 U + 100 μM complex vs 1.25 U without addition) | Amplification of desired long DNA fragment ([1]; Taq, 10 ng E. coli genome, primers Eco1/Eco5 (10 kb), 30 cycles 98°C 5 s–68°C 10 min, 10 μM or 20 μM, only slight without addition) | Reaction time period as fraction of that of no addition ([1]; Taq, 100 μM) | Time Period Required (for same amount of amplified product) ([1]; Taq, 100 μM complex added, 98°C 5 s–68°C 60 s, 30 cycles (no addition: 120 s, 31 cycles, 4911 s)) | Primer amount with which a fragment can still be amplified ([1]; Taq, 100 μM complex, primers 2–20 pmol tested, no amplification without addition) | Amount of template DNA at which amplification was still possible ([1]; Taq, 100 μM complex, templates 1 pg–1 ng tested, no amplification at 1 pg without addition) | Amplification in low-magnesium reaction mixture ([1]; Taq, 0.75 mM magnesium chloride (usual 1.5 mM), 100 μM complex, no amplification without addition) | Amount of amplified DNA relative to No Addition (=1), Pyrobest ([2]; complex 200 μM) | Amplification of desired long DNA fragment ([2]; Pyrobest, 10 ng E. coli genome, primers Eco1/Eco5 (10 kb), 30 cycles 98°C 5 s–68°C 10 min, 50 μM or 100 μM, only slight without addition) | Primer amount with which a fragment can still be amplified ([2]; Pyrobest, 100 μM complex, primers 2–20 pmol tested, no amplification without addition) | Amount of template DNA at which amplification was still possible ([2]; Pyrobest, 100 μM complex, templates 1 pg–1 ng tested, no amplification at 1 pg without addition) | Amplification in low-magnesium reaction mixture ([2]; Pyrobest, 0.5 mM magnesium chloride (usual 1 mM), 100 μM complex, no amplification without addition) | Amount of amplified DNA relative to No Addition (=1), Taq ([1]; complex 200 μM)
1 | NCCN.NCCN.NCCN.[Cl-].[Cl-].[Cl-].[Co+3] [[Co(H2NCH2CH2NH2)3]Cl3, tris(ethylenediamine)cobalt (III) chloride] | 2.6 | 3.0 | 2.1 | 2.2 |  |  |  |  |  |  |  |  |  |  |  |  | 
2 | N.N.N.N.N.N.[Cl-].[Cl-].[Cl-].[Co+3] [[Co(NH3)6]Cl3, hexaamminecobalt (III) chloride] | 2.3 | 2.9 | 2.1 | 2.1 | almost the same level | excellently amplified | about ⅗ | 2953 s | 2 pmol | 1 pg | allowed to amplify | 2.1 | excellently amplified | 3.3 pmol | 1 pg | allowed to amplify | 
3 | NCCN.NCCN.NCCN.O.O.O.[Cl][Rh]([Cl])[Cl] [[Rh(H2NCH2CH2NH2)3]Cl3, tris(ethylenediamine)rhodium (III) trichloride•trihydrate] | 1.4 | 2.1 | 1.4 | 1.7 |  |  |  |  |  |  |  | 2.0 |  |  |  |  | 2.5
